According to PubChem BioAssay (NCI):
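Grown in 96-well plates, cells were treated for 48 hours with each compound at five concentrations. Insufficient inhibition: endpoint recorded as highest concentration tested. At the TGI there is no net growth.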

Assays:
Assay in all cases: growth of human tumour cells (NCI), 48 h
SK-MEL-2 melanoma = test system: SK-MEL-2 melanoma
786-0 renal = test system: 786-0 renal
NCI/ADR-RES ovarian = test system: NCI/ADR-RES ovarian
DU-145 prostate = test system: DU-145 prostate
MCF7 breast = test system: MCF7 breast
EKVX NSCLC = test system: EKVX NSCLC
NCI-H460 lung = test system: NCI-H460 lung
CCRF-CEM leukemia = test system: CCRF-CEM leukemia
ACHN renal = test system: ACHN renal
SF-539 CNS = test system: SF-539 CNS
MDA-N = test system: MDA-N
BT-549 breast = test system: BT-549 breast
MDA-MB-231 breast = test system: MDA-MB-231 breast
SN12C renal = test system: SN12C renal
RXF 393 renal = test system: RXF 393 renal
SNB-75 CNS = test system: SNB-75 CNS
HOP-62 NSCLC = test system: HOP-62 NSCLC
OVCAR-8 ovarian = test system: OVCAR-8 ovarian
SK-MEL-5 melanoma = test system: SK-MEL-5 melanoma
SW-620 colon = test system: SW-620 colon
HCC-2998 colon = test system: HCC-2998 colon
RPMI-8226 leukemia = test system: RPMI-8226 leukemia
IGROV1 ovarian = test system: IGROV1 ovarian
OVCAR-4 ovarian = test system: OVCAR-4 ovarian
CAKI-1 renal = test system: CAKI-1 renal
HCT-116 colon = test system: HCT-116 colon
UO-31 renal = test system: UO-31 renal
HT29 colon = test system: HT29 colon
PC-3 prostate = test system: PC-3 prostate
KM12 colon = test system: KM12 colon
HCT-15 colon = test system: HCT-15 colon
UACC-257 melanoma = test system: UACC-257 melanoma
K-562 leukemia = test system: K-562 leukemia
TK-10 renal = test system: TK-10 renal
SR leukemia = test system: SR leukemia
A498 renal = test system: A498 renal
SF-295 CNS = test system: SF-295 CNS
MOLT-4 leukemia = test system: MOLT-4 leukemia
UACC-62 melanoma = test system: UACC-62 melanoma
U251 CNS = test system: U251 CNS
HOP-92 NSCLC = test system: HOP-92 NSCLC
OVCAR-5 ovarian = test system: OVCAR-5 ovarian
HS 578T breast = test system: HS 578T breast
SNB-19 CNS = test system: SNB-19 CNS
NCI-H23 lung = test system: NCI-H23 lung
MDA-MB-435 = test system: MDA-MB-435
COLO 205 colon = test system: COLO 205 colon
A549 NSCLC = test system: A549 NSCLC
MALME-3M melanoma = test system: MALME-3M melanoma
NCI-H226 lung = test system: NCI-H226 lung
SF-268 CNS = test system: SF-268 CNS
LOX IMVI melanoma = test system: LOX IMVI melanoma
NCI-H522 lung = test system: NCI-H522 lung
T-47D breast = test system: T-47D breast
SK-OV-3 ovarian = test system: SK-OV-3 ovarian

Measured: TGI

CC(C)OC(=O)[C@@H]1OC(C)(C)O[C@H]1C(=O)OC(C)C
> 100 µM: all assays above
